We go through three molecules from patent US20230390411A1, “CONJUGATE AND USE THEREOF” (NANJING CHEMPION BIOTECHNOLOGY CO., LTD., priority 2021, published 2023).

The series deals with NCI-N87 cells. In words: Cytotoxicity assay (CellTiter-Glo). The format is cell-based. To be noted: 6 days, max 50 nM. On the procedure:
When the confluence of cultured NCI-N87 cells reached 70-90%, the cells were digested with trypsin. The trypsin was removed by centrifugation. […] The plate was incubated in a 5% CO2 incubator at 37° C. for 6 days. After the incubation was completed, the cell viability was detected with CellTiter-Glo reagent (Promega, G7573), and the specific cell viability value was measured by a multifunctional microplate reader (PerkinElmer, EnVision).
For orientation: Cellular ATP, detected with luciferase, serves as a proxy for viable cell number.

pIC50: −log10 of the molar value. Starred links: 1 amine or outer side, 2 acyl side, 3 side chain; linkers in the order of their positions; H or OH if unused. Non-standard residues stand in square brackets, D forms with d. Residues, ends and D or L forms follow the SMILES beside them. *: point of attachment. Exatecan = CC[C@@]1(O)C(=O)OCc2c1cc1n(c2=O)Cc2c-1nc1cc(F)c(C)c3c1c2[C@@H](N*)CC3; Dolaproine = CO[C@@H]([C@@H]1CCCN1)[C@@H](C)C(=O)O; Hexanoyl(6-maleimido) = O=C1C=CC(=O)N1CCCCCC(=O)*; Dil = CC[C@H](C)[C@H](NC)[C@@H](CC(=O)O)OC; NHCH2OCH2CO = O=C(COCN[*:1])[*:2]; X1 = C[C@@H](N*)[C@@H](O)c1ccccc1; NMeV = CN[C@H](C(=O)O)C(C)C

One may read the pIC50 as the negative decadic logarithm of the IC50, by convention in mol/L. Low readings indicate a high IC50, high ones a low IC50. With `CC[C@H](C)[C@@H]([C@@H](CC(=O)N1CCC[C@H]1[C@H](OC)[C@@H](C)C(=O)N[C@H](C)[C@@H](O)c1ccccc1)OC)N(C)C(=O)[C@@H](NC(=O)[C@@H](NC)C(C)C)C(C)C` [MMAE, monomethyl auristatin E] (H-[NMeV]V[Dil][Dolaproine]-X1), the pIC50 was 9.89 and the “Max Cytotoxicity %” value is 93.50%. Turning to `C=C1C[C@@H]2CC[C@@]34C[C@H]5O[C@H]6[C@@H](O3)[C@H]3O[C@H](CC[C@@H]3O[C@H]6[C@H]5O4)CC(=O)C[C@@H]3[C@@H](OC)[C@@H](C[C@H](O)CN)O[C@H]3C[C@H]3O[C@@H](CC[C@@H]1O2)C[C@@H](C)C3=C` [Eribulin, eribulin], the “Max Cytotoxicity %” value is on record as 93.99%. The same molecule showed a negative logarithm of the IC50 (pIC50) (Homo sapiens, 144 h) of 9.66.

Regarding `CC[C@@]1(O)C(=O)OCc2c1cc1n(c2=O)Cc2c-1nc1cc(F)c(C)c3c1c2[C@@H](NC(=O)COCNC(=O)CNC(=O)[C@H](Cc1ccccc1)NC(=O)CNC(=O)CNC(=O)CCCCCN1C(=O)C=CC1=O)CC3` [DS8201 scaffold, Deruxtecan] ({Hexanoyl(6-maleimido)}-GGFG[NHCH2OCH2CO]-Exatecan), the “Max Cytotoxicity %” value amounted to 9.38%.
